According to paper PMC11044016 (Journal of the American Chemical Society, 2023):

Experiments:
[1] = Balb/cJ mice, s.c. 75 mg/kg
[2] = terminal cytosine of 3TC; stated without experiment, no reference given; cited from earlier work
[3] = test system: HBV; experiment: Antiviral; format: cell-based; conditions: Hepatitis B virus, HePAD38, read-out: IC50 (HBV DNA released from cells)

## Nc1ccn([C@H]2CS[C@@H](CO)O2)c(=O)n1 [3TC, 2’,3’-Dideoxy-3’-Thiacytidine]
[1]
  3TC plasma concentration after day 3: no drug detectable
[2]
  pKa: around 7.2
[3]
  IC50: 170 nM
